Columns and labels:
Caco-2 monolayers = experiment: TEER measurement of tight junction integrity in Caco-2 monolayers; format: cell-based, Human; details: inhibitor pre-incubated 30 min; for effect of inhibitor on 600-HPTChC65-mediated TEER reduction / tight junction opening: 0.005% (w/v) 600-HPTChC65, 2-h treatment; for effect of inhibitor on chitosan-mediated TEER reduction / tight junction opening: 0.005% (w/v) 600 kDa chitosan, 2-h treatment
Protocol: Human colon adenocarcinoma Caco-2 cell line was obtained from the American Type Culture Collection (Manassas, VA, USA). The cells were maintained in complete medium (CM; Dulbeco's modified Eagle's medium supplemented with 10% (v/v) fetal bovine serum, 100 units/mL penicillin, 100 µg/mL streptomycin, 1% (v/v) non-essential amino acids and 2 mM L-glutamine) at 37 °C in a humidified atmosphere of 5% CO2. Cells were grown at a density of 6 × 10^4 and 1.5 × 10^5 cells/cm^2 on a transwell insert (0.4 µm pore size; Corning Life Sciences, Tewksbury, MA, USA) for 21 days and 14 days in paracellular and transcellular experiments, respectively. At the start of each experiment, the integrity of the Caco-2 monolayer was assessed by measurement of the transepithelial electrical resistance (TEER), using a chopstick-like electrode connected to a Millicell-ERS® (Millipore, Bedford, MA, USA). Cell monolayers with a TEER value of greater than 300 Ω cm^2 were used in each experiment.
The 21 day-aged Caco-2 monolayers were incubated with transport buffers, i.e., 10 mM MES-HBSS, pH 6.5 on the apical side (the donor compartment) and 25 mM HEPES-HBSS, pH 7.4 on the basolateral side (the receiver compartment) for 30 min at 37 °C. Subsequently, the test chitosan in 1% (w/v) acetic acid was added to the apical side and incubated at 37 °C on an orbital shaker for 4 h. To investigate the tight junction signaling pathway, the monolayers were incubated with either ML-7, RO-318220 or genistein for 30 min at 37 °C prior to addition of the test chitosan. The TEER values were monitored at the indicated time points during the treatment period.
For the measurement of tight junction recovery, each monolayer was incubated with the test chitosan for 1 h prior to replacement with CM for another 24 h in a CO2 incubator at 37 °C. The TEER value was measured at the indicated time points during the 24-h chitosan withdrawal period.

[1] = target: recombinant human P-gp membranes (Homo sapiens, UniProt P08183)
recombinant human P-gp membranes, sequence (P08183 whole entry): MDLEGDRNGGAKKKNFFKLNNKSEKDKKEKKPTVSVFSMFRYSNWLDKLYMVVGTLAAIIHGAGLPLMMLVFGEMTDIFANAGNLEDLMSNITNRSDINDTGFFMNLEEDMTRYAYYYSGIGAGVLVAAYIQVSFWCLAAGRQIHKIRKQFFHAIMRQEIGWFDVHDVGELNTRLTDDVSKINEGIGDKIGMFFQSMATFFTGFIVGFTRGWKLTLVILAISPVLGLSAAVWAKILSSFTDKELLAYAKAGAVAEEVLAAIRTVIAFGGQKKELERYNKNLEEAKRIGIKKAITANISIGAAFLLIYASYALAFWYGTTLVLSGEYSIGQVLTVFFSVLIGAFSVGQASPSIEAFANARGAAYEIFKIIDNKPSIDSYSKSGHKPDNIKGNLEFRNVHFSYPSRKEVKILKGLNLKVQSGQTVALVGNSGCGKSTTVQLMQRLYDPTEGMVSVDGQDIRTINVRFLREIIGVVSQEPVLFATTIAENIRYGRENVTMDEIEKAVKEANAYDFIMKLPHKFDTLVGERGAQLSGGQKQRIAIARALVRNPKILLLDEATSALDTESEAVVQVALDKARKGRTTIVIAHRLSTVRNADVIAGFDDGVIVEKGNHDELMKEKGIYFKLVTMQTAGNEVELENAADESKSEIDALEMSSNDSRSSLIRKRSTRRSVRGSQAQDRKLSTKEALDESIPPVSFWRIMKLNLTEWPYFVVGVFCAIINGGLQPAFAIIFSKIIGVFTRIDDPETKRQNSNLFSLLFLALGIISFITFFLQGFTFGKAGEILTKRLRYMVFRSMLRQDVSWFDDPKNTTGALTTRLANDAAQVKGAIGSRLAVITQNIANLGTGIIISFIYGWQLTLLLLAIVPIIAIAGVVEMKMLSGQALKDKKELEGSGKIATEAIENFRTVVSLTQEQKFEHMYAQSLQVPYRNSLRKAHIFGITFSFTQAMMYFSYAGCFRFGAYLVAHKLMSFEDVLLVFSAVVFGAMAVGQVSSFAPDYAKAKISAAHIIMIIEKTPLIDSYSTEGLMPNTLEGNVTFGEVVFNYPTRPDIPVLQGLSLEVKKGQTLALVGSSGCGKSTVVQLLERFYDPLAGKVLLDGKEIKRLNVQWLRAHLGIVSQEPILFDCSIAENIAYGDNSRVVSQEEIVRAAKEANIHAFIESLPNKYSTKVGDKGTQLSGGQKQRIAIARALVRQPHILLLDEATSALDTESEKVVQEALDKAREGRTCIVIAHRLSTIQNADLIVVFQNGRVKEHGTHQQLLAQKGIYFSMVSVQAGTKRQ
Protocol: Effect of 600-HPTChC65 on P-gp ATPase activity was determined in recombinant human P-gp membranes with the use of the P-gp-Glo™ assay (Promega, Madison, Wisconsin), according to the manufacturer’s instruction.

| Molecule | effect of inhibitor on 600-HPTChC65-mediated TEER reduction / tight junction opening (Caco-2 monolayers) | effect of inhibitor on chitosan-mediated TEER reduction / tight junction opening (Caco-2 monolayers) | P-gp ATPase activity (change in luminescence signal) [1] |
| --- | --- | --- | --- |
| O=S(=O)(c1cccc2c(I)cccc12)N1CCCNCC1 [ML-7] | did not prevent | partially prevent | – |
| Cn1cc(C2=C(c3cn(CCCSC(=N)N)c4ccccc34)C(=O)NC2=O)c2ccccc21 [RO-318220] | did not prevent | no significant effect | – |
| O=c1c(-c2ccc(O)cc2)coc2cc(O)cc(O)c12 [genistein] | did not prevent | no significant effect | – |
| N-(2-hydroxypropyl)-3-trimethylammonium chitosan chloride [600-HPTChC65] | – | – | increased ATPase activity |
